Structures can show the parent of a compound that is named as a salt. Where two headings read alike, the source gives them in different places.
Columns and labels:
Porcine DPP-IV = biological target: T1, Porcine DPP-IV (Sus scrofa, UniProt P22411); experiment: Assay of DPP-IV enzyme inhibitory activity (spectrophotometric, Gly-Pro-pNA cleavage); type: biochemical
T1 construct: purchased Sigma-Aldrich Germany

[1] = In-vitro free radical scavenging activity using DPPH free radical; details: 30° C., 30 minutes, 515 nm
Source text: Free Radical Scavenging Activity:
To determine the in-vitro free radical scavenging activity of compounds of general formula-I on 2,2,-diphenyl-1-picrylhydrazyl (DPPH)radical (Ref: W. Brand-Williams, M. E. Cuvelier, C. Berset “Use of a free radical method to evaluate antioxidant activity”, Lebensm.- Wiss.u.Technol.,1995,28,Nr.1:25-30).
To evaluate the free radical scavenging activity of compounds they are allowed to react with stable radical DPPH*. In its radical form, DPPH* absorbed at the characteristic wave length of 515 nm, but upon reduction by an antioxidant or radical scavenger (AH), the absorption disappears.
10^−4M solution of DPPH* was prepared in methanol.
Various concentrations (10 mM, 1 mM, 0.5 mM, 0.25 mM and 0.125 mM) of drug solutions were prepared in methanol.
900 μl of DPPH radical solution was added to an eppendorf tube. To it was added 100 μl of methanol.
900 μl of DPPH radical solution was added to an eppendorf tube. To it was added 100 μl of various concentrations of drug solutions in methanol.
The absorbance of control and test samples was recorded after incubation at 30° C. for 30 minutes, at 515 nm taking methanol as blank.
The percent antioxidant activity was calculated according to the formula:
% Antioxidant activity=100−[O.D of test sample/O.D of control*100]

[2] = Porcine DPP-IV, Gly-Pro-pNA substrate, 30° C., mean ± SD of three experiments except compound Nos. 133 & 139, read-out: IC50 (μM) Mean ± SD, inhibitory activity on DPP-IV enzyme activity

T1 sequence (P22411 whole entry): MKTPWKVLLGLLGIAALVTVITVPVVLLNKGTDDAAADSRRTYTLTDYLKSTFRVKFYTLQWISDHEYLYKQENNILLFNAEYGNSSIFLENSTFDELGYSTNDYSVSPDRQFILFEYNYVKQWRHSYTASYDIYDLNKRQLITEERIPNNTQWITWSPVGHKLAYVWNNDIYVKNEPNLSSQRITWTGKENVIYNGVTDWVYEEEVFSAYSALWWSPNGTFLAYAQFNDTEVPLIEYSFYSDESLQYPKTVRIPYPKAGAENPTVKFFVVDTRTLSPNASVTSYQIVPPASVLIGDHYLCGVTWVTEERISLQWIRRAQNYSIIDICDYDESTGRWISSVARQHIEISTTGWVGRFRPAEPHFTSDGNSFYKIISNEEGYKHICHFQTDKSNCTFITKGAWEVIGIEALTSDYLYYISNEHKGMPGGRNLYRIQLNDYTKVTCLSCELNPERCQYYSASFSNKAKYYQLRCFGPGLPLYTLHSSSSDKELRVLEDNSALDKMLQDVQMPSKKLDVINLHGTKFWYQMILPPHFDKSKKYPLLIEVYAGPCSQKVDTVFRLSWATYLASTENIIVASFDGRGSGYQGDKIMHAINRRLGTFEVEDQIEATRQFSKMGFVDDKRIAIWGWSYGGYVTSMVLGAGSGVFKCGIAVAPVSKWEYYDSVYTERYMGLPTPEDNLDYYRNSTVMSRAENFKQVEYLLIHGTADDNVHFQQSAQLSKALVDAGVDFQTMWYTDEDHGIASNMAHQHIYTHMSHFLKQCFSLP

IC50 (Porcine DPP-IV; [2]) [µM] | Compound | % Activity (antioxidant, DPPH) ([1]; Concentration 12.5 μM) [%] | % Activity (antioxidant, DPPH) ([1]; Concentration 25 μM) [%] | % Activity (antioxidant, DPPH) ([1]; Concentration 50 μM) [%] | % Activity (antioxidant, DPPH) ([1]; Concentration 100 μM) [%] | other results
1.03 ± 0.07 | CCNN(CC(=O)N1CSCC1C#N)C1CCC(NS(C)(=O)=O)CC1 (centres unmarked) [Compound No. 97, 3-[1-oxo-2-[1-(1-(methanesulphonyl)aminocyclohexan-4-yl)-2-ethyl]hydrazino]ethyl-4-cyanothiazolidine] | 18.06 | 38.30 | 66.99 | 91.67 | 
0.397 ± 0.02 | CS(=O)(=O)NC1CCC(N(N)CC(=O)N2CSCC2C#N)CC1 (centres unmarked) [Compound No. 114, 3-[1-oxo-2-(1-(1-methanesulphonylamino-4-cyclohexyl)hydrazino)]ethyl-4-cyanothiazolidine hydrochloride] | 19.23 | 39.37 | 78.16 | 92.76 | 
2.23 ± 0.08 | N#CC1CSCN1C(=O)CN(N)C1CCN(Cc2ccc(F)cc2)CC1 (centres unmarked) [Compound No. 94, 3-[1-oxo-2-[1-(1-(4-fluorobenzyl)-piperidin-4-yl)]hydrazino]ethyl-4-cyanothiazolidine bis-trifluoroacetate] | 9.34 | 24.05 | 39.04 | 55.85 | 
0.226 ± 0.005 | N#CC1CSCN1C(=O)CN(N)C1CCN(CC(=O)Nc2ncc(Br)s2)CC1 (centres unmarked) [compound 117, 3-[1-oxo-2-(1-(1-(2-oxo-2-(5-bromothiazol-2-yl)aminoethyl)piperidine-4-yl))hydrazino]ethyl-4-cyanothiazolidine, tris-trifluoroacetate] |  |  |  | 53.44 | 
 | N#CC1CSCN1C(=O)CN(N)C1CCN(CC(=O)Nc2ccc(Cl)cn2)CC1 (centres unmarked) [Compound No. 115, 3-[-1-oxo-2-[1-(1-(−2-oxo-2-(5-chloropyridin-2-yl)aminoethyl)piperidine-4-yl)]hydrazino]ethyl-4-cyanothiazolidine trihydrochloride] |  |  |  |  | % Activity (antioxidant, DPPH) ([1]; Concentration 12.5 μM, trihydrochloride, 12.5 µM): 19.46%; % Activity (antioxidant, DPPH) ([1]; Concentration 25 μM, trihydrochloride, 25 µM): 26.94%; % Activity (antioxidant, DPPH) ([1]; Concentration 50 μM, trihydrochloride, 50 µM): 46.24%; % Activity (antioxidant, DPPH) ([1]; Concentration 100 μM, trihydrochloride, 100 µM): 75.84%
0.143 ± 0.02 | N#CC1CSCN1C(=O)CN(N)C1CCN(CC(=O)Nc2ncccn2)CC1 (centres unmarked) [Compound No. 106, 3 [2-oxo-2-[1-(1-(2-oxo-2(pyrimidin-2-yl)aminoethyl)piperidin-4-yl)]hydrazino]ethyl-4-cyanothiazolidine tris-trifluoroacetate] | 24.86 | 42.52 | 70.39 | 72.86 | 
0.488 ± 0.017 | CCNN(CC(=O)N1CSCC1C#N)C1CCN(CC(=O)Nc2ccc(Cl)cn2)CC1 (centres unmarked) [Compound No. 101, 3-[1-oxo-2-[1-(1-(2-oxo-2-(5-chloropyridin-2-yl)aminoethyl)piperidin-4-yl)]-2 ethylhydrazino]ethyl-4-cyanothiazolidine tris-hydrochloride] | 20.41 | 31.00 | 32.19 | 61.15 | 
0.308 ± 0.06 | N#CC1CSCN1C(=O)CN(N)C1CCN(CC(=O)Nc2ccc(C(F)(F)F)cc2)CC1 (centres unmarked) [Compound No. 102, 3-[1-oxo-2-[-1-(1-(2-oxo-2(4-trifluorophenyl)aminoethyl)piperidin-4-yl)]hydrazino]ethyl-4-cyanothiazolidine bis-trifluoroacetate] | 20.90 | 29.56 | 34.26 | 50.15 | 
0.2 ± 0.04 | N#Cc1ccc(NC(=O)CN2CCC(N(N)CC(=O)N3CSCC3C#N)CC2)cc1 (centres unmarked) [Compound No. 99, 3-[1-oxo-2-[1-(1-(2-oxo-2-(4-cyanophenyl)aminoethyl)piperidin-4-yl)]hydrazino]ethyl-4-cyanothiazolidine bis-trifluoroacetate] | 15.12 | 24.87 | 39.13 | 53.33 | IC50 (Porcine DPP-IV; read-out: dipeptidyl peptidase-IV inhibitory IC50's in the range): 0.088 to 0.25 µM
 | N#CC1CSCN1C(=O)CN(N)C1CCC(NC(=O)c2ccc(F)cc2)CC1.O=C(O)C(F)(F)F (centres unmarked) [Compound No. 100] | 31.14 | 41.49 | 59.54 | 77.75 | 
 | N#CC1CSCN1C(=O)CN(N)C1CCN(CC(=O)Nc2ccc(Cl)cc2)CC1 (centres unmarked) [Compound No. 105, 3-[1-oxo-2-[1-(1-(2-oxo-2(4-chlorophenyl)aminoethyl)piperidin-4-yl)]hydrazino]ethyl-4-cyanothiazolidine bis-trifluoroacetate] | 24.03 | 35.27 | 49.25 | 49.63 | 
 | N#CC1CSCN1C(=O)CN(N)C1CCN(CC(=O)Nc2cccnc2Cl)CC1 (centres unmarked) [compound 121] |  |  |  | 57.13 | 

Compound | IC50 (Porcine DPP-IV; [2]) [µM] | % Activity (antioxidant, DPPH) ([1]; Concentration 12.5 μM) [%] | % Activity (antioxidant, DPPH) ([1]; Concentration 25 μM) [%] | % Activity (antioxidant, DPPH) ([1]; Concentration 50 μM) [%] | % Activity (antioxidant, DPPH) ([1]; Concentration 100 μM) [%] | other results
N#CC1CSCN1C(=O)CN(N)C1CCN(C(=O)N2CCOCC2)CC1.O=C(O)C(F)(F)F (centres unmarked) [Compound No. 85, 3-[1-oxo-2-[1-(1(morpholinocarbonyl)-piperidin-4-yl)]hydrazino]ethyl-4-cyano-thiazolidine trifluoroacetate] | 0.79 ± 0.072 | 15.25 | 30.67 | 49.97 | 67.23 | 
CCNN(CC(=O)N1CSCC1C#N)C1CCN(C(=O)N2CCOCC2)CC1.O=C(O)C(F)(F)F (centres unmarked) [Compound No. 89, 3-[1-oxo-2-[1-(1-(morpholinocarbonyl)-piperidin-4-yl)-2-ethyl]hydrazino]ethyl-4-cyanothiazolidine trifluoroacetate] | 0.985 ± 0.086 | 10.37 | 20.74 | 36.94 | 55.07 | 
CCNN(CC(=O)N1CSCC1C#N)C1CCN(S(C)(=O)=O)CC1.O=C(O)C(F)(F)F (centres unmarked) [Compound No. 88, 3-[1-oxo-2-[1-(1-(methylsulphonyl)-piperidin-4-yl)-2-ethyl]hydrazino]ethyl-4-cyanothiazolidine trifluoroacetate] | 3.75 ± 0.101 | 14.49 | 44.12 | 56.11 | 69.34 | 
COc1ccc(S(=O)(=O)N2CCC(N(N)CC(=O)N3CSCC3C#N)CC2)cc1.O=C(O)C(F)(F)F (centres unmarked) [Compound No. 91, 3-[1-oxo-2-[1-(1-(4-methoxyphenylsulphonyl)-piperidin-4-yl)]hydrazino]ethyl-4-cyanothiazolidine trifluoroacetate] | 6.7 ± 0.4 | 17.16 | 38.11 | 58.87 | 85.69 | 
COc1ccc(S(=O)(=O)NC2CCC(N(N)CC(=O)N3CSCC3C#N)CC2)cc1.O=C(O)C(F)(F)F (centres unmarked) [Compound No. 92, 3-[1-oxo-2-[1-(1-(4-methoxyphenylsulphonyl)aminocyclohexan-4-yl)]hydrazino]ethyl-4-cyanothiazolidine trifluoroacetate] | 1.33 ± 0.124 | 10.07 | 30.36 | 58.48 | 78.77 | 
CC1CCC(N(N)CC(=O)N2CSCC2C#N)CC1.O=C(O)C(F)(F)F (centres unmarked) [Compound No. 29, 3-[1-Oxo-2-((1-(4-methyl)cyclohexyl)-hydrazino)]ethyl-4-cyano thiazolidine trifluoroacetate] | 0.8 ± 0.15 |  |  |  |  | % Activity (antioxidant, DPPH) ([1]; Concentration 100 μM, 100 µM): 93.70%
CC(C)(C)C(=O)NC1CCC(N(N)CC(=O)N2CSCC2C#N)CC1.O=C(O)C(F)(F)F (centres unmarked) [Compound No. 96, 3-[1-oxo-2-[1-(1-(trimethylacetamido)cyclohexan-4-yl)]hydrazino]ethyl-4-cyanothiazolidine trifluoroacetate] | 4 ± 0.144 |  |  |  |  | % Activity (antioxidant, DPPH) ([1]; Concentration 12.5 μM, 12.5 µM): 19.11%; % Activity (antioxidant, DPPH) ([1]; Concentration 25 μM, 25 µM): 34.43%; % Activity (antioxidant, DPPH) ([1]; Concentration 50 μM, 50 µM): 48.83%; % Activity (antioxidant, DPPH) ([1]; Concentration 100 μM, 100 µM): 63.26%

From patent US20040106802A1, “Novel compounds and therapeutic uses thereof” (TORRENT PHARMACEUTICALS LTD., priority 2002, published 2004)
